# Measurements as given in article PMC7660103, “Discovery of Novel 3-Cyanopyridines as Survivin Modulators and Apoptosis Inducers” (Molecules, 2020).
# Experiments:
# [1] = system: XIAP; experiment: Western blotting of XIAP in MDA-MB-231 cells; type: cell-based, human; settings: for XIAP protein level (Western blot, in words): MDA-MB-231, 1, 5 and 10 µM
# Description: (§1) The ability of the 2-oxo-3-cyano pyridines 5c and 5e to cause an inhibition of survivin was evaluated by the use of Western blotting analysis in MDA-MB-231cells treated with different concentrations of both compounds (1, 5, and 10 µM). […] Furthermore, to test the effect of these compounds on some other IAP family proteins, the Western plot of Livin, XIAP, and C-IAP1 proteins was performed (Figure 6). […] The Supplementary Material Figures S40 and S41 contain western blotting analysis for 5c and 5e.
# (§2) MDA-MB-231 cancer cells were incubated with 5c and 5e at different concentrations (1, 5, and 10 µM) for 48 h. Afterwards, the medium was detached, and the cells were washed using PBS (10 mmol/L, pH 7.4). Then, the cells were incubated on cold lysis buffer (50 mmol/L Tris–HCl, 150 mmol/L NaCl, 1 mmol/L EGTA, 1 mmol/L EDTA, 20 mmol/L NaF, […], 0.5% NP40, 1% Triton X-100, 1 mmol/L PMSF (pH 7.4)) and a freshly added cocktail inhibitor (Inhibitor Cocktail Set III, Calbiochem, La Jolla, CA) above ice for 30 min. Then, MDA-MB-231 cells were collected and centrifuged at 12,000× g for 15 min.
# (§3) XIAp, Survivin, Livin, and cIAP1anti-mouse, anti-rabbit secondary antibodies, and GAPDH were purchased from Sigma-Aldrich, whereas the gel was obtained from BioRad. Polyacrylamide gels were moved to a nitrocellulose membrane in order to block in buffer (7% nonfat dry milk/1% Tween 20; in 20 mmol/L TBS (pH 7.6)) for 1 h and incubated for 2 h at room temperature with the suitable primary antibody in blocking buffer or overnight at 4 °C; then, they were incubated with secondary antibody HRP conjugate. Finally, the blots analysis was done using the imaging system.
# [2] = target: T1, survivin (Homo sapiens, UniProt O15392); experiment: Rescue experiment with proteasome inhibitor MG132 (Western blot of survivin); type: cell-based; settings: MDA-MB cells pre-treated with proteasome inhibitor MG132
# T1 construct: Western blotting analysis in MDA-MB-231cells treated with different concentrations of both compounds; endogenous in cells; host or cells: MDA-MB-231
# T1 sequence (O15392 whole entry): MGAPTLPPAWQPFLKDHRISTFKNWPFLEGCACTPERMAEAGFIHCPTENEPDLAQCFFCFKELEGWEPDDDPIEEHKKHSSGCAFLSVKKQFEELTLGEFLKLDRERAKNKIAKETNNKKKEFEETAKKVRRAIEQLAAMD
# Description: Degradation of the dimeric proteins can result from the interaction with the hydrophobic dimerization interface, which leads to conformational changes. This degradation can be mediated by the proteasome enzyme. Since 5c and 5e were expected to inhibit survivin dimerization as shown in the docking study, we assumed that they may induce the degradation of survivin via the proteasome. Thus, a rescue experiment was performed by pre-treating MDA-MB-cells with the proteasome inhibitor MG132 prior to 5c/5e treatment. […] Thus, 5c and 5e likely promote survivin degradation through the proteasome.
# [3] = system: normal cell line WI-38; experiment: SRB cytotoxicity assay, normal cell line WI-38; type: cell-based; settings: Homo sapiens, WI-38, mean ± SD of three experiments
# Description: The cytotoxicity of the newly synthesized compounds on the normal cell line WI-38 was also evaluated in order to examine the safety of these compounds.
# (§4) Cell viability was estimated using the SRB assay. Aliquots of 100 µL cell suspension (5 × 10^3 cells) in 96-well plates were incubated in complete media for 24 h. Cells were treated with a second aliquot of 100 µL media containing various concentrations of the tested compounds (0.01, 0.1, 1, 10, and 100 μM). After 72 h, cells were fixed by replacing media with 15 µL of 10% TCA and then incubated at 4 °C for 1 h. After that, TCA solution was removed, and the cells were washed 5 times with distilled water. Aliquots of 70 µL SRB solution (0.4% w/v) were added and incubated in a dark place at room temperature for 10 min. Plates were washed 3 times with 1% acetic acid and allowed to air dry overnight. Then, 150 µL of TRIS (10 mM) was added to dissolve protein-bound SRB stain. The absorbance was measured at 540 nm using BMG LABTECH®-FLUO star Omega microplate reader (Ortenberg, Germany).
# [4] = target: T1, survivin; experiment: Western blotting of survivin in MDA-MB-231 cells; type: cell-based; settings: for survivin expression (Western blot, in words): MDA-MB-231, 1, 5 and 10 µM
# Description: as §1, §2, §3
# [5] = system: breast cancer (MDA-MB-231) cells; experiment: SRB cytotoxicity assay, MDA-MB-231; type: cell-based, human; settings: for IC50: Homo sapiens, MDA-MB-231, 72 h, SRB assay, 72 h, mean ± SD of three experiments; for Selectivity Index MDA-MB-231: SI = IC50 on WI-38/IC50 on MDA-MB-231
# Description: (§5) In the present work, sulforhodamine B (SRB) colorimetric assay was done to evaluate the cytotoxic activity of the synthesized 3-cyano pyridines 4a–4e, 5a–5e, and 6a–6e on three human cancer cell lines: prostate carcinoma (PC-3), breast cancer (MDA-MB-231) and hepatocellular carcinoma (HepG2) cell lines. 5-FU was used as a standard drug for comparison.
# (§6) Human cancer cells were obtained from Nawah Scientific Inc. (Mokatam, Cairo, Egypt). Cells were maintained in DMEM media containing […] streptomycin, 100 units/mL penicillin, and 10% heat-inactivated fetal bovine serum in humified, 5% (v/v) CO2 atmosphere at 37 °C.
# as §4
# [6] = system: hepatocellular carcinoma (HepG2) cells; experiment: SRB cytotoxicity assay, HepG2; type: cell-based, human; settings: for IC50: Homo sapiens, HepG2, 72 h, SRB assay, 72 h, mean ± SD of three experiments; for Selectivity Index HepG2: SI = IC50 on WI-38/IC50 on HepG2
# Description: as §5, §6, §4
# [7] = cytotoxicity compared with 5-FU
Structure (SMILES),"XIAP band % ([1]; MDA-MB-231, 1µM) [%]","XIAP band Area ([1]; MDA-MB-231, 1µM)","XIAP band Height ([1]; MDA-MB-231, 1µM)","XIAP band Width ([1]; MDA-MB-231, 1µM)","XIAP band % ([1]; MDA-MB-231, 5µM) [%]","XIAP band Area ([1]; MDA-MB-231, 5µM)","XIAP band Height ([1]; MDA-MB-231, 5µM)","XIAP band Width ([1]; MDA-MB-231, 5µM)","XIAP band % ([1]; MDA-MB-231, 10µM) [%]","XIAP band Area ([1]; MDA-MB-231, 10µM)","XIAP band Height ([1]; MDA-MB-231, 10µM)","XIAP band Width ([1]; MDA-MB-231, 10µM)","XIAP protein level (Western blot, in words) [1]",effect of MG132 pre-treatment on compound-induced survivin loss [2],IC50 [3] [µM],"Survivin band % ([4]; MDA-MB-231, 1µM) [%]","Survivin band Area ([4]; MDA-MB-231, 1µM)","Survivin band Height ([4]; MDA-MB-231, 1µM)","Survivin band Width ([4]; MDA-MB-231, 1µM)","Survivin band % ([4]; MDA-MB-231, 5µM) [%]",other results
"N#Cc1c(-c2ccc(Cl)cc2)cc(-c2ccc(OCc3ccc(F)cc3)cc2)[nH]c1=O [Compound 5c, 4-(4-Chlorophenyl)-6-(4-((4-fluorobenzyl)oxy)phenyl)-2-oxo-1,2-dihydropyridine-3-carbonitrile]",16.3,970,99,22,15.1,921,88,19,14.2,853,82,19,decreased the levels of these proteins,MG132 reversed 5c/5e-induced survivin loss,91.29 ± 0.47,38.3,2261,156,26,25.9,"Survivin band Area ([4]; MDA-MB-231, 5µM): 1674; Survivin band Height ([4]; MDA-MB-231, 5µM): 137; Survivin band Width ([4]; MDA-MB-231, 5µM): 16; Survivin band % ([4]; MDA-MB-231, 10µM): 15.6%; Survivin band Area ([4]; MDA-MB-231, 10µM): 1028; Survivin band Height ([4]; MDA-MB-231, 10µM): 121; Survivin band Width ([4]; MDA-MB-231, 10µM): 13; survivin expression (Western blot, in words) [4]: remarkable inhibition of survivin expression; IC50 [5]: 20 ± 0.17 µM; Selectivity Index MDA-MB-231 [5]: 4.56; IC50 [6]: 15 ± 0.64 µM; Selectivity Index HepG2 [6]: 6.08"
"COc1ccc(-c2cc(-c3ccc(OCc4ccc(F)cc4)cc3)[nH]c(=O)c2C#N)cc1 [Compound 5e, 6-(4-((4-Fluorobenzyl)oxy)phenyl)-4-(4-methoxyphenyl)-2-oxo-1,2-dihydropyridine-3-carbonitrile]",15.4,841,80,22,8.6,287,41,17,4.7,260,28,13,decreased the levels of these proteins,MG132 reversed 5c/5e-induced survivin loss,102.6 ± 0.81,31.4,1368,120,22,25,"Survivin band Area ([4]; MDA-MB-231, 5µM): 1079; Survivin band Height ([4]; MDA-MB-231, 5µM): 108; Survivin band Width ([4]; MDA-MB-231, 5µM): 19; Survivin band % ([4]; MDA-MB-231, 10µM): 19.1%; Survivin band Area ([4]; MDA-MB-231, 10µM): 1062; Survivin band Height ([4]; MDA-MB-231, 10µM): 105; Survivin band Width ([4]; MDA-MB-231, 10µM): 18; survivin expression (Western blot, in words) [4]: remarkable inhibition of survivin expression; IC50 [5]: 3.59 ± 0.42 µM; Selectivity Index MDA-MB-231 [5]: 28.57; activity relative to 5-FU, MDA-MB-231 [5, 7]: 2.6 fold; IC50 [6]: 6.01 ± 0.53 µM; Selectivity Index HepG2 [6]: 17.06; activity relative to 5-FU, HepG2 [6, 7]: comparable to 5-FU"
